Measured values from ChEMBL document CHEMBL1140045, “Crystal structures of rat vitamin D receptor bound to adamantyl vitamin D analogs: structural basis for vitamin D receptor antagonism and partial agonism” (J Med Chem, 2008).
Calls of active or inactive are those of the source. The calls are words filed in the database; no cut-off is given here.

Assays:
[1] = molecular target: T1, Vitamin D3 receptor (Homo sapiens, UniProt P11473); test: Agonist activity at VDR assessed as receptor transactivation by transient transcription assay; format: functional
T1 sequence (P11473 whole entry): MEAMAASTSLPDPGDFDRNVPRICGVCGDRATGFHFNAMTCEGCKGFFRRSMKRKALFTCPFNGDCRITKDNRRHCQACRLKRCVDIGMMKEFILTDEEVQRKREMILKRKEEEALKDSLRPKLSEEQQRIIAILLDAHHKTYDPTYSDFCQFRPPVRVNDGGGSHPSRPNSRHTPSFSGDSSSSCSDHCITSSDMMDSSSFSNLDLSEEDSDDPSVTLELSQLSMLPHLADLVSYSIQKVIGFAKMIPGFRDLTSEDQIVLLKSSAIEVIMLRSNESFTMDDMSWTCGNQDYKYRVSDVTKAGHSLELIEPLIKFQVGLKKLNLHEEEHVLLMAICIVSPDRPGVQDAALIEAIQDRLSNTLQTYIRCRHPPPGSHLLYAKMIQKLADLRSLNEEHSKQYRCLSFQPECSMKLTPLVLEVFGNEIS

[2] = molecular target: T2, Vitamin D3 receptor (Homo sapiens) (UniProt P11473); test: Agonist activity at VDR assessed as receptor transactivation by transient transcription assay relative to 1,25-Dihydroxyvitamin D3; format: functional
T2 sequence (whole entry): T1 sequence (P11473 whole entry)

[3] = molecular target: T2, Vitamin D3 receptor (Homo sapiens); test: Binding affinity to VDR relative to 1,25-Dihydroxyvitamin D3
[4] = molecular target: T1, Vitamin D3 receptor; test: Antagonist activity at VDR expressed in COS7 cells assessed as inhibition of 1,25-Dihydroxyvitamin D3-induced response by transient transcription assay; format: functional, cell-based, COS-7

| Structure (SMILES) | EC50 [1] [nM] | Activity [2] [%] | Activity [3] | IC50 [4] [nM] |
| --- | --- | --- | --- | --- |
| C=C1[C@H](O)CC(=C/C=C2\CCC[C@]3(C)[C@@H]([C@@H](C)/C=C/C[C@@H](O)C45CC6CC(CC(C6)C4)C5)CC[C@@H]23)C[C@H]1O | 1 | 15 | 75% | 3 |
| C=C1[C@H](O)CC(=C/C=C2\CCC[C@]3(C)[C@@H]([C@@H](C)/C=C/C[C@@H](O)CC45CC6CC(CC(C6)C4)C5)CC[C@@H]23)C[C@H]1O | 24 | 10 | Active | – |
| C=C1[C@H](O)CC(=C/C=C2\CCC[C@]3(C)[C@@H]([C@H](C)/C=C/[C@@H](O)C45CC6CC(CC(C6)C4)C5)CC[C@@H]23)C[C@H]1O | 0.02 | 74 | 20% | – |
